Data published in the CheMixHub ionic liquid set.
± gives the uncertainty stated by the source.

Experiment: xn = mol fraction of the nth substance listed
Details: 101 kPa

Compound: CCCCCCCCCCCCCC[n+]1ccccc1.O=C([O-])C(O)c1ccccc1 + NCC(=O)NCC(=O)O + O
- electrical conductivity (303.15 K, x1 = 4.108e-05, x2 = 0): 0.0146 ± 0.0015 S/m
- electrical conductivity (303.15 K, x1 = 4.386e-05, x2 = 0.0009001): 0.0157 ± 0.0016 S/m
- electrical conductivity (303.15 K, x1 = 4.574e-05, x2 = 0.001799): 0.0174 ± 0.0018 S/m
- electrical conductivity (303.15 K, x1 = 4.811e-05, x2 = 0): 0.0161 ± 0.0017 S/m
- electrical conductivity (303.15 K, x1 = 5.11e-05, x2 = 0.0009001): 0.017 ± 0.0017 S/m
- electrical conductivity (303.15 K, x1 = 5.321e-05, x2 = 0.001799): 0.0187 ± 0.0019 S/m
- electrical conductivity (303.15 K, x1 = 5.388e-05, x2 = 0): 0.0172 ± 0.0018 S/m
- electrical conductivity (303.15 K, x1 = 5.781e-05, x2 = 0.0009001): 0.0182 ± 0.0019 S/m
- electrical conductivity (303.15 K, x1 = 5.982e-05, x2 = 0): 0.0182 ± 0.0019 S/m
- electrical conductivity (303.15 K, x1 = 6.069e-05, x2 = 0.001799): 0.02 ± 0.002 S/m
- electrical conductivity (303.15 K, x1 = 6.433e-05, x2 = 0.0009001): 0.0193 ± 0.002 S/m
- electrical conductivity (303.15 K, x1 = 6.559e-05, x2 = 0): 0.0192 ± 0.0019 S/m
- electrical conductivity (303.15 K, x1 = 6.816e-05, x2 = 0.001799): 0.0213 ± 0.0022 S/m
- electrical conductivity (303.15 K, x1 = 7.081e-05, x2 = 0): 0.02 ± 0.002 S/m
- electrical conductivity (303.15 K, x1 = 7.104e-05, x2 = 0.0009001): 0.0204 ± 0.0021 S/m
- electrical conductivity (303.15 K, x1 = 7.454e-05, x2 = 0.001799): 0.0222 ± 0.0022 S/m
- electrical conductivity (303.15 K, x1 = 7.604e-05, x2 = 0): 0.0209 ± 0.0021 S/m
- electrical conductivity (303.15 K, x1 = 7.81e-05, x2 = 0.0009001): 0.0217 ± 0.0022 S/m
- electrical conductivity (303.15 K, x1 = 8.072e-05, x2 = 0): 0.0217 ± 0.0022 S/m
- electrical conductivity (303.15 K, x1 = 8.128e-05, x2 = 0.001799): 0.0233 ± 0.0024 S/m
- electrical conductivity (308.15 K, x1 = 5.26e-06, x2 = 0.0009002): 0.00433 ± 0.00094 S/m
- electrical conductivity (308.15 K, x1 = 6.01e-06, x2 = 0.001799): 0.0066 ± 0.001 S/m
- electrical conductivity (308.15 K, x1 = 6.85e-06, x2 = 0): 0.0034 ± 0.001 S/m
- electrical conductivity (308.15 K, x1 = 9.97e-06, x2 = 0.0009002): 0.0061 ± 0.001 S/m
- electrical conductivity (308.15 K, x1 = 1.185e-05, x2 = 0.001799): 0.0088 ± 0.0012 S/m
- electrical conductivity (308.15 K, x1 = 1.424e-05, x2 = 0): 0.0065 ± 0.0011 S/m
- electrical conductivity (308.15 K, x1 = 1.486e-05, x2 = 0.0009002): 0.008 ± 0.0011 S/m
- electrical conductivity (308.15 K, x1 = 1.713e-05, x2 = 0.001799): 0.0107 ± 0.0014 S/m
- electrical conductivity (308.15 K, x1 = 2.084e-05, x2 = 0.0009002): 0.0102 ± 0.0013 S/m
- electrical conductivity (308.15 K, x1 = 2.126e-05, x2 = 0): 0.0093 ± 0.0013 S/m
- electrical conductivity (308.15 K, x1 = 2.26e-05, x2 = 0.001799): 0.0128 ± 0.0015 S/m
- electrical conductivity (308.15 K, x1 = 2.537e-05, x2 = 0.0009002): 0.012 ± 0.0015 S/m
- electrical conductivity (308.15 K, x1 = 2.788e-05, x2 = 0.001799): 0.0146 ± 0.0016 S/m
- electrical conductivity (308.15 K, x1 = 2.811e-05, x2 = 0): 0.0122 ± 0.0015 S/m
- electrical conductivity (308.15 K, x1 = 3.117e-05, x2 = 0.0009002): 0.014 ± 0.0016 S/m
- electrical conductivity (308.15 K, x1 = 3.335e-05, x2 = 0.001799): 0.0164 ± 0.0018 S/m
- electrical conductivity (308.15 K, x1 = 3.46e-05, x2 = 0): 0.0145 ± 0.0016 S/m
- electrical conductivity (308.15 K, x1 = 3.679e-05, x2 = 0.0009002): 0.0159 ± 0.0017 S/m
- electrical conductivity (308.15 K, x1 = 3.864e-05, x2 = 0.001799): 0.018 ± 0.0019 S/m
- electrical conductivity (308.15 K, x1 = 4.108e-05, x2 = 0): 0.0161 ± 0.0017 S/m
- electrical conductivity (308.15 K, x1 = 4.386e-05, x2 = 0.0009001): 0.0177 ± 0.0018 S/m
- electrical conductivity (308.15 K, x1 = 4.574e-05, x2 = 0.001799): 0.0197 ± 0.002 S/m
- electrical conductivity (308.15 K, x1 = 4.811e-05, x2 = 0): 0.0179 ± 0.0019 S/m
- electrical conductivity (308.15 K, x1 = 5.11e-05, x2 = 0.0009001): 0.0192 ± 0.002 S/m
- electrical conductivity (308.15 K, x1 = 5.321e-05, x2 = 0.001799): 0.0213 ± 0.0022 S/m
- electrical conductivity (308.15 K, x1 = 5.388e-05, x2 = 0): 0.0191 ± 0.002 S/m
- electrical conductivity (308.15 K, x1 = 5.781e-05, x2 = 0.0009001): 0.0205 ± 0.0021 S/m
- electrical conductivity (308.15 K, x1 = 5.982e-05, x2 = 0): 0.0202 ± 0.0021 S/m
- electrical conductivity (308.15 K, x1 = 6.069e-05, x2 = 0.001799): 0.0227 ± 0.0023 S/m
- electrical conductivity (308.15 K, x1 = 6.433e-05, x2 = 0.0009001): 0.0218 ± 0.0022 S/m
- electrical conductivity (308.15 K, x1 = 6.559e-05, x2 = 0): 0.0213 ± 0.0022 S/m
- electrical conductivity (308.15 K, x1 = 6.816e-05, x2 = 0.001799): 0.024 ± 0.0024 S/m
- electrical conductivity (308.15 K, x1 = 7.081e-05, x2 = 0): 0.0223 ± 0.0023 S/m
- electrical conductivity (308.15 K, x1 = 7.104e-05, x2 = 0.0009001): 0.023 ± 0.0023 S/m
- electrical conductivity (308.15 K, x1 = 7.454e-05, x2 = 0.001799): 0.0252 ± 0.0026 S/m
- electrical conductivity (308.15 K, x1 = 7.604e-05, x2 = 0): 0.0232 ± 0.0024 S/m
- electrical conductivity (308.15 K, x1 = 7.81e-05, x2 = 0.0009001): 0.0244 ± 0.0025 S/m
- electrical conductivity (308.15 K, x1 = 8.072e-05, x2 = 0): 0.0241 ± 0.0024 S/m
- electrical conductivity (308.15 K, x1 = 8.128e-05, x2 = 0.001799): 0.0265 ± 0.0027 S/m
- electrical conductivity (313.15 K, x1 = 5.26e-06, x2 = 0.0009002): 0.005 ± 0.001 S/m
- electrical conductivity (313.15 K, x1 = 6.01e-06, x2 = 0.001799): 0.0077 ± 0.0012 S/m
- electrical conductivity (313.15 K, x1 = 6.85e-06, x2 = 0): 0.0037 ± 0.0011 S/m
- electrical conductivity (313.15 K, x1 = 9.97e-06, x2 = 0.0009002): 0.0069 ± 0.0011 S/m
- electrical conductivity (313.15 K, x1 = 1.185e-05, x2 = 0.001799): 0.01 ± 0.0013 S/m
- electrical conductivity (313.15 K, x1 = 1.424e-05, x2 = 0): 0.0071 ± 0.0012 S/m
- electrical conductivity (313.15 K, x1 = 1.486e-05, x2 = 0.0009002): 0.009 ± 0.0013 S/m
- electrical conductivity (313.15 K, x1 = 1.713e-05, x2 = 0.001799): 0.0122 ± 0.0015 S/m
- electrical conductivity (313.15 K, x1 = 2.084e-05, x2 = 0.0009002): 0.0114 ± 0.0015 S/m
- electrical conductivity (313.15 K, x1 = 2.126e-05, x2 = 0): 0.0101 ± 0.0014 S/m
- electrical conductivity (313.15 K, x1 = 2.26e-05, x2 = 0.001799): 0.0144 ± 0.0017 S/m
- electrical conductivity (313.15 K, x1 = 2.537e-05, x2 = 0.0009002): 0.0134 ± 0.0016 S/m
- electrical conductivity (313.15 K, x1 = 2.788e-05, x2 = 0.001799): 0.0165 ± 0.0018 S/m
- electrical conductivity (313.15 K, x1 = 2.811e-05, x2 = 0): 0.0131 ± 0.0016 S/m
- electrical conductivity (313.15 K, x1 = 3.117e-05, x2 = 0.0009002): 0.0157 ± 0.0018 S/m
- electrical conductivity (313.15 K, x1 = 3.335e-05, x2 = 0.001799): 0.0184 ± 0.002 S/m
- electrical conductivity (313.15 K, x1 = 3.46e-05, x2 = 0): 0.0157 ± 0.0018 S/m
- electrical conductivity (313.15 K, x1 = 3.679e-05, x2 = 0.0009002): 0.0178 ± 0.0019 S/m
- electrical conductivity (313.15 K, x1 = 3.864e-05, x2 = 0.001799): 0.0203 ± 0.0021 S/m
- electrical conductivity (313.15 K, x1 = 4.108e-05, x2 = 0): 0.0179 ± 0.0019 S/m
- electrical conductivity (313.15 K, x1 = 4.386e-05, x2 = 0.0009001): 0.0199 ± 0.0021 S/m
- electrical conductivity (313.15 K, x1 = 4.574e-05, x2 = 0.001799): 0.0222 ± 0.0023 S/m
- electrical conductivity (313.15 K, x1 = 4.811e-05, x2 = 0): 0.0198 ± 0.0021 S/m
- electrical conductivity (313.15 K, x1 = 5.11e-05, x2 = 0.0009001): 0.0215 ± 0.0022 S/m
- electrical conductivity (313.15 K, x1 = 5.321e-05, x2 = 0.001799): 0.024 ± 0.0024 S/m
- electrical conductivity (313.15 K, x1 = 5.388e-05, x2 = 0): 0.0211 ± 0.0022 S/m
- electrical conductivity (313.15 K, x1 = 5.781e-05, x2 = 0.0009001): 0.023 ± 0.0024 S/m
- electrical conductivity (313.15 K, x1 = 5.982e-05, x2 = 0): 0.0224 ± 0.0023 S/m
- electrical conductivity (313.15 K, x1 = 6.069e-05, x2 = 0.001799): 0.0254 ± 0.0026 S/m
- electrical conductivity (313.15 K, x1 = 6.433e-05, x2 = 0.0009001): 0.0244 ± 0.0025 S/m
- electrical conductivity (313.15 K, x1 = 6.559e-05, x2 = 0): 0.0236 ± 0.0024 S/m
- electrical conductivity (313.15 K, x1 = 6.816e-05, x2 = 0.001799): 0.027 ± 0.0027 S/m
- electrical conductivity (313.15 K, x1 = 7.081e-05, x2 = 0): 0.0246 ± 0.0025 S/m
- electrical conductivity (313.15 K, x1 = 7.104e-05, x2 = 0.0009001): 0.0258 ± 0.0026 S/m
- electrical conductivity (313.15 K, x1 = 7.454e-05, x2 = 0.001799): 0.0283 ± 0.0029 S/m
- electrical conductivity (313.15 K, x1 = 7.604e-05, x2 = 0): 0.0258 ± 0.0026 S/m
- electrical conductivity (313.15 K, x1 = 7.81e-05, x2 = 0.0009001): 0.0273 ± 0.0028 S/m
- electrical conductivity (313.15 K, x1 = 8.072e-05, x2 = 0): 0.0266 ± 0.0027 S/m
- electrical conductivity (313.15 K, x1 = 8.128e-05, x2 = 0.001799): 0.0298 ± 0.003 S/m
